Tested on: MOLM-13 cells
Experiment: MOLM-13 Cell Proliferation Assay (indicator of DHODH inhibition)
Format: cell-based
Settings: Homo sapiens, 72 Hours of culture, CellTiter-Glo, no uridine
Method in brief: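 Proliferation readout via CellTiter-Glo luminescence after 72 h compound treatment (37 °C, 5% CO2, 0.5% DMSO) of MOLM-13 cells seeded at 10^4 per well in RPMI 1640/10% FBS, used as a DHODH-inhibition indicator since these cells rely on de novo pyrimidine synthesis.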

SMILES	IC50 [nM]
Cc1ccnc(N2CCc3c([nH]c4ccc(Cl)cc34)[C@H]2c2ccc(C)c(F)c2F)n1 [Compound 185, (1R)-6-chloro-1-(2,3-difluoro-4-methylphenyl)-2-(4-methylpyrimidin-2-yl)-2,3,4,9-tetrahydro-1H-pyrido[3,4-b]indole]	16.2
Cc1ccc(C2c3[nH]c4cc(F)c(Cl)cc4c3CCN2c2ncc(F)cn2)c(F)c1F (centres unmarked) [Compound 138, 6-chloro-1-(2,3-difluoro-4-methylphenyl)-7-fluoro-2-(5-fluoropyrimidin-2-yl)-2,3,4,9-tetrahydro-1H-pyrido[3,4-b]indole]	3.5
CN(C)c1ccc2[nH]c3c(c2c1)CCN(c1nccc(C(F)(F)F)n1)C3c1cnc(N2CCOCC2)nc1 (centres unmarked) [Compound 329, N,N-dimethyl-1-[2-(morpholin-4-yl)pyrimidin-5-yl]-2-[4-(trifluoromethyl)pyrimidin-2-yl]-2,3,4,9-tetrahydro-1H-pyrido[3,4-b]indol-6-amine]	35.4
Cc1ccc(C2c3[nH]c4cc(F)c(Cl)cc4c3CCN2c2ncc(Cl)cn2)c(F)c1F (centres unmarked) [Compound 130, 6-chloro-2-(5-chloropyrimidin-2-yl)-1-(2,3-difluoro-4-methylphenyl)-7-fluoro-2,3,4,9-tetrahydro-1H-pyrido[3,4-b]indole]	5.8
Cc1ccc([C@@H]2c3[nH]c4ccc(Cl)cc4c3CCN2c2ncc(F)cn2)c(F)c1F [Compound 179, (1R)-6-chloro-1-(2,3-difluoro-4-methylphenyl)-2-(5-fluoropyrimidin-2-yl)-2,3,4,9-tetrahydro-1H-pyrido[3,4-b]indole]	23.2
Cc1nc(N2CCc3c([nH]c4ccc(Cl)c(F)c34)C2c2cccc(F)c2F)nc(C)c1F (centres unmarked) [Compound 117, 6-chloro-1-(2,3-difluorophenyl)-5-fluoro-2-(5-fluoro-4,6-dimethylpyrimidin-2-yl)-2,3,4,9-tetrahydro-1H-pyrido[3,4-b]indole]	2
Fc1c(Cl)ccc2[nH]c3c(c12)CCN(c1nccc(C(F)(F)F)n1)C3c1ccc(C(F)(F)F)cc1 (centres unmarked) [Compound 74, 6-chloro-5-fluoro-1-[4-(trifluoromethyl)phenyl]-2-[4-(trifluoromethyl)pyrimidin-2-yl]-2,3,4,9-tetrahydro-1H-pyrido[3,4-b]indole]	5.7
CN(C)c1ccc(C2c3[nH]c4cc(F)c(Cl)cc4c3CCN2c2nccc(C(F)(F)F)n2)c(F)n1 (centres unmarked) [Compound 208, 5-{6-chloro-7-fluoro-2-[4-(trifluoromethyl)pyrimidin-2-yl]-2,3,4,9-tetrahydro-1H-pyrido[3,4-b]indol-1-yl}-6-fluoro-N,N-dimethylpyridin-2-amine]	2.2
Cc1ccc(C2c3[nH]c4ccc(C)c(F)c4c3CCN2c2nccc(C(F)(F)F)n2)cc1 (centres unmarked) [Compound 174, 5-fluoro-6-methyl-1-(4-methylphenyl)-2-[4-(trifluoromethyl)pyrimidin-2-yl]-2,3,4,9-tetrahydro-1H-pyrido[3,4-b]indole]	7.8
FC(F)(F)c1ccnc(N2CCc3c([nH]c4ccc(Cl)cc34)C2c2ccc(N3CCOCC3)nc2)n1 (centres unmarked) [Compound 303, 6-chloro-1-[6-(morpholin-4-yl)pyridin-3-yl]-2-[4-(trifluoromethyl)pyrimidin-2-yl]-2,3,4,9-tetrahydro-1H-pyrido[3,4-b]indole]	2.5
Cc1nc(N2CCOCC2)nc(N2CCc3c([nH]c4ccc(Cl)cc34)C2c2cnc(N3CCOCC3)nc2)n1 (centres unmarked) [Compound 296, 6-chloro-2-[4-methyl-6-(morpholin-4-yl)-1,3,5-triazin-2-yl]-1-[2-(morpholin-4-yl)pyrimidin-5-yl]-2,3,4,9-tetrahydro-1H-pyrido[3,4-b]indole]	16.2
Fc1cnc(N2CCc3c([nH]c4cc(F)c(Cl)cc34)C2c2ccc(F)cc2F)nc1 (centres unmarked) [Compound 12, 6-chloro-1-(2,4-difluorophenyl)-7-fluoro-2-(5-fluoropyrimidin-2-yl)-2,3,4,9-tetrahydro-1H-pyrido[3,4-b]indole]	35.8
CN(C)c1ccc(C2c3[nH]c4cc(F)c(Cl)cc4c3CCN2c2nccc(C(F)(F)F)n2)cc1 (centres unmarked) [Compound 170, 4-{6-chloro-7-fluoro-2-[4-(trifluoromethyl)pyrimidin-2-yl]-2,3,4,9-tetrahydro-1H-pyrido[3,4-b]indol-1-yl}-N,N-dimethylaniline]	10.6
Cc1ccc(C2c3[nH]c4ccc(Cl)cc4c3CCN2c2nccc(N(C)C)n2)cc1 (centres unmarked) [Compound 307, 2-[6-chloro-1-(4-methylphenyl)-1,3,4,9-tetrahydro-2H-pyrido[3,4-b]indol-2-yl]-N,N-dimethylpyrimidin-4-amine]	99.2
Cc1ccnc(N2CCc3c([nH]c4cc(F)c(Cl)cc34)C2c2ccc(F)cc2)n1 (centres unmarked) [Compound 9, 6-chloro-7-fluoro-1-(4-fluorophenyl)-2-(4-methylpyrimidin-2-yl)-2,3,4,9-tetrahydro-1H-pyrido[3,4-b]indole]	35.9
Fc1cc(-n2ccnc2)ccc1C1c2[nH]c3ccc(Cl)cc3c2CCN1c1ncccn1 (centres unmarked) [Compound 274, 6-chloro-1-[2-fluoro-4-(1H-imidazol-1-yl)phenyl]-2-(pyrimidin-2-yl)-2,3,4,9-tetrahydro-1H-pyrido[3,4-b]indole]	58.5

The remaining lines, values ahead:

IC50 [nM]	SMILES
102	Cc1nc(C)nc(N2CCc3c([nH]c4ccc(N(C)C)cc34)C2c2cnc(N3CCOCC3)nc2)n1 (centres unmarked) [Compound 331, 2-(4,6-dimethyl-1,3,5-triazin-2-yl)-N,N-dimethyl-1-[2-(morpholin-4-yl)pyrimidin-5-yl]-2,3,4,9-tetrahydro-1H-pyrido[3,4-b]indol-6-amine]
3.1	Cc1ccc([C@H]2c3[nH]c4ccc(Cl)cc4c3CCN2c2ncc(F)c(C#N)n2)cc1 [Compound 392, 2-[(1S)-6-chloro-1-(4-methylphenyl)-1,3,4,9-tetrahydro-2H-pyrido[3,4-b]indol-2-yl]-5-fluoropyrimidine-4-carbonitrile]
2.4	N#Cc1nc(N2CCc3c([nH]c4ccc(Cl)cc34)[C@@H]2c2cnc(N3CCOCC3)nc2)ncc1F [Compound 396, 2-{(1S)-6-chloro-1-[2-(morpholin-4-yl)pyrimidin-5-yl]-1,3,4,9-tetrahydro-2H-pyrido[3,4-b]indol-2-yl}-5-fluoropyrimidine-4-carbonitrile]
52.2	Cc1nc(C)nc(N2CCc3c([nH]c4ccc(Cl)cc34)C2c2cnc(N3CC4CC3CO4)nc2)n1 (centres unmarked) [Compound 336, 6-chloro-2-(4,6-dimethyl-1,3,5-triazin-2-yl)-1-[2-(2-oxa-5-azabicyclo[2.2.1]heptan-5-yl)pyrimidin-5-yl]-2,3,4,9-tetrahydro-1H-pyrido[3,4-b]indole]
5.2	FC(F)(F)c1nc(N2CCOCC2)nc(N2CCc3c([nH]c4ccc(Cl)cc34)[C@@H]2c2cnc(N3CCOCC3)nc2)n1 [Compound 445, (1S)-6-chloro-1-[2-(morpholin-4-yl)pyrimidin-5-yl]-2-[4-(morpholin-4-yl)-6-(trifluoromethyl)-1,3,5-triazin-2-yl]-2,3,4,9-tetrahydro-1H-pyrido[3,4-b]indole]
0.2	FC(F)(F)c1cc(C(F)(F)F)nc(N2CCc3c([nH]c4ccc(Br)cc34)[C@@H]2c2ccc(N3CCOCC3)nc2)n1 [Compound 487, (1S)-2-[4,6-bis(trifluoromethyl)pyrimidin-2-yl]-6-bromo-1-[6-(morpholin-4-yl)pyridin-3-yl]-2,3,4,9-tetrahydro-1H-pyrido[3,4-b]indole]
1.7	Cc1cnn(-c2ccc3[nH]c4c(c3c2)CCN(c2nc(C(F)(F)F)cc(C(F)(F)F)n2)[C@H]4c2ccc(C)c(F)c2F)n1 [Compound 520, (1S)-2-[4,6-bis(trifluoromethyl)pyrimidin-2-yl]-1-(2,3-difluoro-4-methylphenyl)-6-(4-methyl-2H-1,2,3-triazol-2-yl)-2,3,4,9-tetrahydro-1H-pyrido[3,4-b]indole]
10.9	Cc1ccn(-c2ccc3[nH]c4c(c3c2)CCN(c2nc(C(F)(F)F)nc(C(F)(F)F)n2)[C@H]4c2ccc(C)c(F)c2F)n1 [Compound 530, (1S)-2-[4,6-bis(trifluoromethyl)-1,3,5-triazin-2-yl]-1-(2,3-difluoro-4-methylphenyl)-6-(3-methyl-1H-pyrazol-1-yl)-2,3,4,9-tetrahydro-1H-pyrido[3,4-b]indole]
18.4	Cc1ccc(C2c3[nH]c4cc(F)c(Cl)cc4c3CCN2c2nc(Cl)cc(N(C)C)n2)cc1 (centres unmarked) [Cpd 17, 6-chloro-2-[6-chloro-7-fluoro-1-(4-methylphenyl)-1,3,4,9-tetrahydro-2H-pyrido[3,4-b]indol-2-yl]-N,N-dimethylpyrimidin-4-amine]
0.6	FC(F)(F)c1cc(C(F)(F)F)nc(N2CCc3c([nH]c4ccc(-n5nccn5)cc34)[C@@H]2c2cnc(N3CCOCC3)nc2)n1 [Compound 514, (1S)-2-[4,6-bis(trifluoromethyl)pyrimidin-2-yl]-1-[2-(morpholin-4-yl)pyrimidin-5-yl]-6-(2H-1,2,3-triazol-2-yl)-2,3,4,9-tetrahydro-1H-pyrido[3,4-b]indole]
6.1	Fc1ccc(C2c3[nH]c4ccc(Cl)cc4c3CCN2c2nccc(C(F)(F)F)n2)c(F)c1 (centres unmarked) [Compound 423, 6-chloro-1-(2,4-difluorophenyl)-2-[4-(trifluoromethyl)pyrimidin-2-yl]-2,3,4,9-tetrahydro-1H-pyrido[3,4-b]indole]
3.3	Cc1ccc([C@H]2c3[nH]c4ccc(Cl)cc4c3CCN2c2nc(CO)nc(C(F)(F)F)n2)c(F)c1F [Compound 521, {4-[(1S)-6-chloro-1-(2,3-difluoro-4-methylphenyl)-1,3,4,9-tetrahydro-2H-pyrido[3,4-b]indol-2-yl]-6-(trifluoromethyl)-1,3,5-triazin-2-yl}methanol]
2.7	Cc1ccc([C@H]2c3[nH]c4ccc(Cl)cc4c3CCN2c2nc(C#N)cc(C(F)(F)F)n2)c(F)c1F [Compound 416, 2-[(1S)-6-chloro-1-(2,3-difluoro-4-methylphenyl)-1,3,4,9-tetrahydro-2H-pyrido[3,4-b]indol-2-yl]-6-(trifluoromethyl)pyrimidine-4-carbonitrile]
